In article doi:10.1101/2021.04.08.439011v1 (biorxiv, 2021):
Where two headings read alike, the source gives them in different places.

Key:
[1] = biological target: ABL1(F317I) (Homo sapiens, UniProt P00519, F317I); settings: 1 µM, binder
[2] = biological target: BRAF(V600E) (Homo sapiens, UniProt P15056, V600E); settings: 1 µM; binder
[3] = biological target: BRSK2 (Homo sapiens, UniProt Q8IWQ3); settings: 1 µM; binder
[4] = biological target: CDC2L2 (Homo sapiens, UniProt Q9UQ88); settings: 1 µM; binder
[5] = biological target: CDK3 (Homo sapiens, UniProt Q00526); settings: 1 µM; binder
[6] = biological target: CDK4 (Homo sapiens, UniProt P11802); settings: 1 µM; binder
[7] = biological target: CDK4-cyclinD3 (Homo sapiens, UniProt P11802); settings: 1 µM; binder
[8] = biological target: CHEK1 (Homo sapiens, UniProt O14757); settings: 1 µM; binder
[9] = biological target: CLK1 (Homo sapiens, UniProt P49759); settings: 1 µM; binder
[10] = biological target: CSF1R-autoinhibited (Homo sapiens, UniProt P07333); settings: 1 µM; binder
[11] = biological target: CSNK1A1 (Homo sapiens, UniProt P48729); settings: 1 µM; binder
[12] = biological target: CSNK1E (Homo sapiens, UniProt P49674); settings: 1 µM; binder
[13] = biological target: DYRK2 (Homo sapiens, UniProt Q92630); settings: 1 µM; binder
[14] = biological target: EGFR(G719S) (Homo sapiens, UniProt P00533, G719S); settings: 1 µM; binder
[15] = biological target: FLT3(R834Q) (Homo sapiens, UniProt P36888, R834Q); settings: 1 µM; binder
[16] = biological target: KIT (Homo sapiens, UniProt P10721); settings: 1 µM; binder
[17] = biological target: MAP3K1 (Homo sapiens, UniProt Q13233); settings: 1 µM; binder
[18] = biological target: MEK3 (Homo sapiens, UniProt P46734); settings: 1 µM; binder
[19] = biological target: MEK6 (Homo sapiens, UniProt P52564); settings: 1 µM; binder
[20] = biological target: MYLK (Homo sapiens, UniProt Q15746); settings: 1 µM; binder
[21] = biological target: NEK1 (Homo sapiens, UniProt Q96PY6); settings: 1 µM; binder
[22] = biological target: NEK3 (Homo sapiens, UniProt P51956); settings: 1 µM; binder
[23] = biological target: PIK3CA (Homo sapiens, UniProt P42336); settings: 1 µM; binder
[24] = biological target: PLK1 (Homo sapiens, UniProt P53350); settings: 1 µM; binder
[25] = biological target: RIOK1 (Homo sapiens, UniProt Q9BRS2); settings: 1 µM; binder
[26] = biological target: SGK3 (Homo sapiens, UniProt Q96BR1); settings: 1 µM; binder
[27] = biological target: SIK1 (Homo sapiens, UniProt P57059); settings: 1 µM; binder
[28] = biological target: SRC (Homo sapiens, UniProt P12931); settings: 1 µM; binder
[29] = biological target: TAK1 (Homo sapiens, UniProt O43318); settings: 1 µM; binder
[30] = biological target: TNNI3K (Homo sapiens, UniProt Q59H18); settings: 1 µM; binder

Chain of ABL1(F317I) (P00519 whole entry F317I): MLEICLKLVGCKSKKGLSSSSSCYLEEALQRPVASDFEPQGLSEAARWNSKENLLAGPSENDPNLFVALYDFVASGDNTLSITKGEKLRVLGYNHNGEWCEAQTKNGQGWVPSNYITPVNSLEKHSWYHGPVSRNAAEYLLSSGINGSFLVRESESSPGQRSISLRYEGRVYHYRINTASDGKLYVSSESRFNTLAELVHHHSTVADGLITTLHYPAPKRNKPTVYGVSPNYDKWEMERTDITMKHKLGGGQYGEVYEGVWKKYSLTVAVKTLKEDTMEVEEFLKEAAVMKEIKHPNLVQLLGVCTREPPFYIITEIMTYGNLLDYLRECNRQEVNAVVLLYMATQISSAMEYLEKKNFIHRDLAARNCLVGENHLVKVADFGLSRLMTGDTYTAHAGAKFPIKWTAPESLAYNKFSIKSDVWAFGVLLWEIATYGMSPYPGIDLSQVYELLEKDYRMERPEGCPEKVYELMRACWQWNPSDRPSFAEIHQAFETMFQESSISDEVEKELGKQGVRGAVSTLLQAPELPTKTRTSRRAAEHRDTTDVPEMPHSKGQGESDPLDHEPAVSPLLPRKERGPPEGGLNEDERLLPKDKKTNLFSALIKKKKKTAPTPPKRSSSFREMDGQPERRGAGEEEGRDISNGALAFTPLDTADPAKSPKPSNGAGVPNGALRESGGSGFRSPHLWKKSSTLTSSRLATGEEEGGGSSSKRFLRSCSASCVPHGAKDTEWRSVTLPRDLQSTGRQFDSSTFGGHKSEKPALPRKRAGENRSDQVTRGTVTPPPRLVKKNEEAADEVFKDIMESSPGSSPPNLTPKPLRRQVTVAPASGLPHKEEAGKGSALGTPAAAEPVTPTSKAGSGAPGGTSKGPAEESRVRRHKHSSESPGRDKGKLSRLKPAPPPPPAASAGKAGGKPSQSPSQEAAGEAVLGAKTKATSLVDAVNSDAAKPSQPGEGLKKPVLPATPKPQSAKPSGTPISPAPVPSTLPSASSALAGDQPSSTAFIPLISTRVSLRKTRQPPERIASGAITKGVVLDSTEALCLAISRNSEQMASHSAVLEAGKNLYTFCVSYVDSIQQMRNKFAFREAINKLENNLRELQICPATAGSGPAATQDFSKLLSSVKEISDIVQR
Chain of RIOK1 (Q9BRS2 whole entry): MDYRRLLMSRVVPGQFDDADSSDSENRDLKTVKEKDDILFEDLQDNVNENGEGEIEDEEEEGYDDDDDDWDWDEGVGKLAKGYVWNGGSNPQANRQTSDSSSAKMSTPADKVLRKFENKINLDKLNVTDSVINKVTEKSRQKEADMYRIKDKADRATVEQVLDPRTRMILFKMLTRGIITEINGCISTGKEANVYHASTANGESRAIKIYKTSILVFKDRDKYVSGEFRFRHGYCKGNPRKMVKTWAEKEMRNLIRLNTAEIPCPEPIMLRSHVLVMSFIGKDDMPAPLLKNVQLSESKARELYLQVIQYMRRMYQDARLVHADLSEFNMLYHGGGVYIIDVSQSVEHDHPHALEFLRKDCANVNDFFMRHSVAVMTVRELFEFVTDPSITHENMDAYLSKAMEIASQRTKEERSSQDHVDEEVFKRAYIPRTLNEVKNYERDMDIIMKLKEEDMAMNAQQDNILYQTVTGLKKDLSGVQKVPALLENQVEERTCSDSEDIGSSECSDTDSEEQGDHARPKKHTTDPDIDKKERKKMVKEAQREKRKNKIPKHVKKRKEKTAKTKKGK
Chain of CSNK1E (P49674 whole entry): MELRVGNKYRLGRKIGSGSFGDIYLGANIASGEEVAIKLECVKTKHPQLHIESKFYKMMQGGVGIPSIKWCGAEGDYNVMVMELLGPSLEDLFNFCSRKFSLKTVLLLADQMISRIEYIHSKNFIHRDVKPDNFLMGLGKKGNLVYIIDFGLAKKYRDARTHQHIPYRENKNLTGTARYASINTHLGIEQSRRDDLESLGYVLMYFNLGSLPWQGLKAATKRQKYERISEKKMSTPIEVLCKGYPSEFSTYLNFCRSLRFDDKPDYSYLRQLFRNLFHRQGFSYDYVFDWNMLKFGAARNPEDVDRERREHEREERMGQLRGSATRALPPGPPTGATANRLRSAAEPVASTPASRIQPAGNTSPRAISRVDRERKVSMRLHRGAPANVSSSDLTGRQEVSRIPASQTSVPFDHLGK
Chain of CDK3 (Q00526 whole entry): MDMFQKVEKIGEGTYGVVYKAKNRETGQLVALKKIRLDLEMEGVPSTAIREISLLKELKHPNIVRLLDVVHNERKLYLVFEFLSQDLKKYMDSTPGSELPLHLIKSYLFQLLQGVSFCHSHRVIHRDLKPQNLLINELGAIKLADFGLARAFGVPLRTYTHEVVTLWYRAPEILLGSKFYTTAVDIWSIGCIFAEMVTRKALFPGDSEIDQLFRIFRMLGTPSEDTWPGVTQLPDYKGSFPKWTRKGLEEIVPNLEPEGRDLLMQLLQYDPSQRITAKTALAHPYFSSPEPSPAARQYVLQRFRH
Chain of MEK3 (P46734 whole entry): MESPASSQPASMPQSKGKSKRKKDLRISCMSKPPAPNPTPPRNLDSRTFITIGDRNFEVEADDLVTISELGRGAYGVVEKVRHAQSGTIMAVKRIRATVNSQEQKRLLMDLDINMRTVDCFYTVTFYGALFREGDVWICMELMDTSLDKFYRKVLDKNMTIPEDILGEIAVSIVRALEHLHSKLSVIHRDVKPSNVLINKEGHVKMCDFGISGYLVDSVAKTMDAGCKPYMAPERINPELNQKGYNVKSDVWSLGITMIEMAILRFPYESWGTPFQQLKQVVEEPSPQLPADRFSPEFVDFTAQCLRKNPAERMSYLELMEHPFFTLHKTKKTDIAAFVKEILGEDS
Chain of CDK4-cyclinD3 (P11802 whole entry): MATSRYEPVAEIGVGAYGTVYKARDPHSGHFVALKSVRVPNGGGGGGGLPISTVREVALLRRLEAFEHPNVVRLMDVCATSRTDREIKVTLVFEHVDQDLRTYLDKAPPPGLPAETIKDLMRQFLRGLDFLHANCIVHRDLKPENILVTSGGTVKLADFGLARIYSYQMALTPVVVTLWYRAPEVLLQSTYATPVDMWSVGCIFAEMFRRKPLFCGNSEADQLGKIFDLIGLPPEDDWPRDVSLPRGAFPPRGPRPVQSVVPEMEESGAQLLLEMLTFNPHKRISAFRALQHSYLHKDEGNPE
Chain of CDK4-cyclinD3 (P30281 whole entry partner): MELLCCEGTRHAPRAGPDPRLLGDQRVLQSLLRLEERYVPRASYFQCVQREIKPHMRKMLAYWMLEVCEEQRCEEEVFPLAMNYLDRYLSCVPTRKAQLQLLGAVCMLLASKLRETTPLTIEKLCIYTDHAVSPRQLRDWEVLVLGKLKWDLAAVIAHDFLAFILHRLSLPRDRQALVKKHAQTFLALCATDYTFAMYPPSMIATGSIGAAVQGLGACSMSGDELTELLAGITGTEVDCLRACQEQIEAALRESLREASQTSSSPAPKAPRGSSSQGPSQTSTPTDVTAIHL
Chain of CDK4 (P11802 whole entry): as the sequence (P11802 whole entry) above
Chain of NEK3 (P51956 whole entry): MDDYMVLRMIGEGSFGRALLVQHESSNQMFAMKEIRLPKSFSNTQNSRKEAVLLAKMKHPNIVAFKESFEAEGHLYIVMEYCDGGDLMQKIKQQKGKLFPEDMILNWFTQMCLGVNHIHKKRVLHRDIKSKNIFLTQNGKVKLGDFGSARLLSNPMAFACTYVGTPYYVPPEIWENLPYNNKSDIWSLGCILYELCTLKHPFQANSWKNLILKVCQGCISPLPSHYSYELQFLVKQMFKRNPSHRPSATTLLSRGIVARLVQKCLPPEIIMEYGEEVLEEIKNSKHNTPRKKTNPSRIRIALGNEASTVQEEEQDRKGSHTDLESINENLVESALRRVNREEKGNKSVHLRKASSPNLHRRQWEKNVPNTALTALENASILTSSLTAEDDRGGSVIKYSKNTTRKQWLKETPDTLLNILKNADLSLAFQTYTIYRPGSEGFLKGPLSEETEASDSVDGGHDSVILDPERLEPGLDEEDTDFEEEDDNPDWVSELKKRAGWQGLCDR
Chain of CLK1 (P49759 whole entry): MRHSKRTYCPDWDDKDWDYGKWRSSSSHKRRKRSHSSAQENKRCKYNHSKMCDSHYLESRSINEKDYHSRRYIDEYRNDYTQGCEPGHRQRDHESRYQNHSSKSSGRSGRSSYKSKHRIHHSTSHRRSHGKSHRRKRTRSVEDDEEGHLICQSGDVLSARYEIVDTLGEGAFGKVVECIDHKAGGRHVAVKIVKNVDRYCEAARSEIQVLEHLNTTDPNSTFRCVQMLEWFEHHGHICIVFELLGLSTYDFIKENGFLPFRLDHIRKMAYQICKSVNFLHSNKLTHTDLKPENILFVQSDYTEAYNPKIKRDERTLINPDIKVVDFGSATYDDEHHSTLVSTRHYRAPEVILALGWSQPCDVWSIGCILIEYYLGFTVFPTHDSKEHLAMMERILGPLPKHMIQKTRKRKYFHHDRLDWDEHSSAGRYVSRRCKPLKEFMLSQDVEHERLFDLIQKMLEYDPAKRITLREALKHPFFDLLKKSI
Chain of CSNK1A1 (P48729 whole entry): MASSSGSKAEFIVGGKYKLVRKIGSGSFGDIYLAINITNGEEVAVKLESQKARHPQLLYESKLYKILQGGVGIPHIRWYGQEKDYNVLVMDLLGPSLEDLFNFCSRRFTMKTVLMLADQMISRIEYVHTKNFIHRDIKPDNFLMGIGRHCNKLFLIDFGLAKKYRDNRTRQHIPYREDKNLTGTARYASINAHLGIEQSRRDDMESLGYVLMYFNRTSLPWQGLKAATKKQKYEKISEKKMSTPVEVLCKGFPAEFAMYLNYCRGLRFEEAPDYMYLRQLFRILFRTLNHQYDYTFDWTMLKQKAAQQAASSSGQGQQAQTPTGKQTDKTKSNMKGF

SMILES: CNc1ncc2cc(-c3ccc(-c4cccc(C)n4)cc3Cl)c(=O)n(C[C@H]3OC[C@H](N)CO3)c2n1 [compound 6, G-5555]
- Percent Control ([1]; nonphosphorylated): 100%
- Percent Control ([1]; phosphorylated): 96%
- Percent Control [2]: 93%
- Percent Control [3]: 100%
- Percent Control [4]: 100%
- Percent Control [5]: 100%
- Percent Control [6]: 100%
- Percent Control [7]: 100%
- Percent Control [8]: 100%
- Percent Control [9]: 100%
- Percent Control [10]: 84%
- Percent Control [11]: 89%
- Percent Control [12]: 52%
- Percent Control [13]: 100%
- Percent Control [14]: 100%
- Percent Control [15]: 100%
- Percent Control [16]: 100%
- Percent Control [17]: 98%
- Percent Control [18]: 29%
- Percent Control [19]: 30%
- Percent Control [20]: 85%
- Percent Control [21]: 100%
- Percent Control [22]: 72%
- Percent Control [23]: 100%
- Percent Control [24]: 94%
- Percent Control [25]: 100%
- Percent Control [26]: 60%
- Percent Control [27]: 0.6%
- Percent Control [28]: 100%
- Percent Control [29]: 92%
- Percent Control [30]: 98%
